ChEMBL document CHEMBL1201862, “PubChem BioAssay data set” (2004)
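Cultured in 96-well plates, cells were exposed to test compound for 48 hours across five concentrations. Abbreviation: GI50, concentration required for 50% inhibition of growth.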 The source made the active and inactive calls. No stated cut-off is given here; in the data, active = GI50 up to about 1.1 µM and inactive = higher.

How the values were obtained:
Test in all cases: NCI-60 cell line screen, 48 h
SK-MEL-28 = test system: SK-MEL-28
COLO 205 = test system: COLO 205
OVCAR-3 = test system: OVCAR-3
A549 = test system: A549
CCRF-CEM = test system: CCRF-CEM
U-251 = test system: U-251
DU-145 = test system: DU-145
OVCAR-5 = test system: OVCAR-5
MOLT-4 = test system: MOLT-4
Hs-578T = test system: Hs-578T
NCI-H226 = test system: NCI-H226
A498 = test system: A498
HCT-116 = test system: HCT-116
MCF7 = test system: MCF7
OVCAR-8 = test system: OVCAR-8
SF-539 = test system: SF-539
HT-29 = test system: HT-29
HCT-15 = test system: HCT-15
SN12C = test system: SN12C
PC-3 = test system: PC-3
SF-268 = test system: SF-268
UO-31 = test system: UO-31
SNB-19 = test system: SNB-19
NCI-H460 = test system: NCI-H460
TK-10 = test system: TK-10
SNB-75 = test system: SNB-75
SW-620 = test system: SW-620
BT-549 = test system: BT-549
SK-MEL-5 = test system: SK-MEL-5
CAKI-1 = test system: CAKI-1
HOP-62 = test system: HOP-62
K562 = test system: K562
SK-OV-3 = test system: SK-OV-3
MDA-N = test system: MDA-N
HOP-92 = test system: HOP-92
T47D = test system: T47D
HL-60 = test system: HL-60
HCC 2998 = test system: HCC 2998
SK-MEL-2 = test system: SK-MEL-2
786-0 = test system: 786-0
OVCAR-4 = test system: OVCAR-4
ACHN = test system: ACHN
SF-295 = test system: SF-295
M14 = test system: M14
LOX IMVI = test system: LOX IMVI
MDA-MB-435 = test system: MDA-MB-435
SR = test system: SR
NCI-H522 = test system: NCI-H522
RPMI-8226 = test system: RPMI-8226
RXF 393 = test system: RXF 393
NCI-H23 = test system: NCI-H23
EKVX = test system: EKVX
MDA-MB-231 = test system: MDA-MB-231
IGROV-1 = test system: IGROV-1
KM12 = test system: KM12
Malme-3M = test system: Malme-3M
NCI/ADR-RES = test system: NCI/ADR-RES
UACC-62 = test system: UACC-62
UACC-257 = test system: UACC-257

For `CC(=O)CCC[C@@H](C)[C@@H]1O[C@H]([C@@]2(C)CCC(=O)O2)C[C@H]2C(CSc3ccccc3)C(=O)O[C@@H]12` (stereo partly drawn), the GI50 (SK-MEL-28) was 18.7 µM (inactive), the GI50 (COLO 205) was 15.6 µM (inactive) and the GI50 (OVCAR-3) was 13.8 µM (inactive). For the same compound, the GI50 (A549) was 13.8 µM (inactive), the GI50 (CCRF-CEM) was 3.3 µM (inactive) and the GI50 (U-251) was 16.9 µM (inactive). The GI50 (DU-145) was 14.6 µM (inactive), the GI50 (OVCAR-5) was 15.1 µM (inactive) and the GI50 (MOLT-4) was 2.96 µM (inactive). For the same compound, the GI50 (Hs-578T) was 12.4 µM (inactive), the GI50 (NCI-H226) was 14.8 µM (inactive) and the GI50 (A498) was 27.4 µM (inactive). The GI50 (HCT-116) was 15.6 µM (inactive), the GI50 (MCF7) was 9.55 µM (inactive) and the GI50 (OVCAR-8) was 20 µM (inactive). For the same compound, the GI50 (SF-539) was 14.6 µM (inactive), the GI50 (HT-29) was 17 µM (inactive) and the GI50 (HCT-15) was 17.3 µM. For the same compound, the GI50 (SN12C) was 14.9 µM (inactive), the GI50 (PC-3) was 19 µM (inactive) and the GI50 (SF-268) was 20 µM (inactive). The GI50 (UO-31) was 14.2 µM (inactive), the GI50 (SNB-19) was 33.4 µM (inactive) and the GI50 (NCI-H460) was 20.7 µM (inactive). The GI50 (TK-10) was 12.6 µM (inactive), the GI50 (SNB-75) was > 40.4 µM (inactive) and the GI50 (SW-620) was 10.3 µM (inactive). The GI50 (BT-549) was 11.6 µM (inactive), the GI50 (SK-MEL-5) was 21.4 µM (inactive) and the GI50 (CAKI-1) was 12.7 µM (inactive). The GI50 (HOP-62) was 65.2 µM (inactive), the GI50 (K562) was 6.18 µM (inactive) and the GI50 (SK-OV-3) was 44.7 µM (inactive). The GI50 (MDA-N) was 13.8 µM (inactive), the GI50 (HOP-92) was 16.3 µM (inactive) and the GI50 (T47D) was 17.9 µM (inactive). For the same compound, the GI50 (HL-60) was 2.42 µM (inactive), the GI50 (HCC 2998) was 15.3 µM (inactive) and the GI50 (SK-MEL-2) was 17.3 µM (inactive). For the same compound, the GI50 (786-0) was 12.9 µM (inactive), the GI50 (OVCAR-4) was 13.2 µM (inactive) and the GI50 (ACHN) was 14.3 µM (inactive). For the same compound, the GI50 (SF-295) was 44.1 µM (inactive), the GI50 (M14) was 13.3 µM (inactive) and the GI50 (LOX IMVI) was 12.4 µM (inactive). For the same compound, the GI50 (MDA-MB-435) was 16.1 µM (inactive), the GI50 (SR) was 6.79 µM (inactive) and the GI50 (NCI-H522) was 3.6 µM (inactive). The GI50 (RPMI-8226) was 13.3 µM (inactive), the GI50 (RXF 393) was 4.16 µM (inactive) and the GI50 (NCI-H23) was 17.9 µM (inactive). The GI50 (EKVX) was 9.98 µM (inactive), the GI50 (MDA-MB-231) was 18.1 µM (inactive) and the GI50 (IGROV-1) was 9.66 µM (inactive). For the same compound, the GI50 (KM12) was 15.1 µM (inactive), the GI50 (Malme-3M) was 8.09 µM (inactive) and the GI50 (NCI/ADR-RES) was 17.7 µM (inactive). The GI50 (UACC-62) was 14.5 µM (inactive) and the GI50 (UACC-257) was 13.4 µM (inactive).

`O=c1[nH]c2cc(Cl)ccc2nc1/C(=N/Nc1ccccc1)C(O)c1ccco1` (stereo not drawn) was tested, and the GI50 (SK-MEL-28) was > 100 µM (inactive), the GI50 (COLO 205) was > 100 µM (inactive) and the GI50 (OVCAR-3) was > 100 µM (inactive). The GI50 (A549) was > 100 µM (inactive), the GI50 (CCRF-CEM) was > 100 µM (inactive) and the GI50 (U-251) was > 100 µM (inactive). The GI50 (DU-145) was > 100 µM (inactive), the GI50 (OVCAR-5) was > 100 µM (inactive) and the GI50 (MOLT-4) was > 100 µM (inactive). The GI50 (Hs-578T) was > 100 µM (inactive), the GI50 (NCI-H226) was > 100 µM (inactive) and the GI50 (A498) was > 100 µM (inactive). For the same compound, the GI50 (HCT-116) was > 100 µM (inactive), the GI50 (MCF7) was > 100 µM (inactive) and the GI50 (OVCAR-8) was > 100 µM (inactive). For the same compound, the GI50 (SF-539) was > 100 µM (inactive), the GI50 (HT-29) was > 100 µM (inactive) and the GI50 (HCT-15) was > 100 µM. For the same compound, the GI50 (SN12C) was > 100 µM (inactive), the GI50 (PC-3) was > 100 µM (inactive) and the GI50 (SF-268) was > 100 µM (inactive). For the same compound, the GI50 (UO-31) was > 100 µM (inactive), the GI50 (SNB-19) was > 100 µM (inactive) and the GI50 (NCI-H460) was > 100 µM (inactive). For the same compound, the GI50 (TK-10) was > 100 µM (inactive), the GI50 (SNB-75) was > 100 µM (inactive) and the GI50 (SW-620) was > 100 µM (inactive). For the same compound, the GI50 (BT-549) was > 100 µM (inactive), the GI50 (SK-MEL-5) was > 100 µM (inactive) and the GI50 (CAKI-1) was > 100 µM (inactive). The GI50 (HOP-62) was > 100 µM (inactive), the GI50 (K562) was > 100 µM (inactive) and the GI50 (SK-OV-3) was > 100 µM (inactive). The GI50 (MDA-N) was > 100 µM (inactive), the GI50 (HOP-92) was > 100 µM (inactive) and the GI50 (T47D) was > 100 µM (inactive). The GI50 (HL-60) was > 100 µM (inactive), the GI50 (HCC 2998) was > 100 µM (inactive) and the GI50 (SK-MEL-2) was > 100 µM (inactive). The GI50 (786-0) was > 100 µM (inactive), the GI50 (OVCAR-4) was > 100 µM (inactive) and the GI50 (ACHN) was > 100 µM (inactive). The GI50 (SF-295) was > 100 µM (inactive), the GI50 (M14) was > 100 µM (inactive) and the GI50 (LOX IMVI) was > 100 µM (inactive). The GI50 (MDA-MB-435) was > 100 µM (inactive), the GI50 (SR) was > 100 µM (inactive) and the GI50 (NCI-H522) was > 100 µM (inactive). For the same compound, the GI50 (RPMI-8226) was > 100 µM (inactive), the GI50 (RXF 393) was > 100 µM (inactive) and the GI50 (NCI-H23) was > 100 µM (inactive). For the same compound, the GI50 (EKVX) was > 100 µM (inactive), the GI50 (MDA-MB-231) was > 100 µM (inactive) and the GI50 (IGROV-1) was > 100 µM (inactive). For the same compound, the GI50 (KM12) was > 100 µM (inactive), the GI50 (Malme-3M) was > 100 µM (inactive) and the GI50 (NCI/ADR-RES) was > 100 µM (inactive). For the same compound, the GI50 (UACC-62) was > 100 µM (inactive) and the GI50 (UACC-257) was > 100 µM (inactive).
